For orientation: IC50 means the concentration at which inhibition is half-maximal.

From US20250177359A1, “COMPOUNDS FOR USE IN THE TREATMENT OF CANCER AND INFLAMMATORY CONDITIONS” (priority 2022, published 2025) come the findings set out here.

Series [1] in a line: Toxicity using the WST-1 assay. In general terms: Tetrazolium assays rely on reduction of a dye to a coloured formazan, in cell work by metabolically active cells.
Series [2] deals with T1, PARP2 (Homo sapiens, UniProt Q9UGN5).
T1 construct: made in house
T1 sequence (Q9UGN5 whole entry): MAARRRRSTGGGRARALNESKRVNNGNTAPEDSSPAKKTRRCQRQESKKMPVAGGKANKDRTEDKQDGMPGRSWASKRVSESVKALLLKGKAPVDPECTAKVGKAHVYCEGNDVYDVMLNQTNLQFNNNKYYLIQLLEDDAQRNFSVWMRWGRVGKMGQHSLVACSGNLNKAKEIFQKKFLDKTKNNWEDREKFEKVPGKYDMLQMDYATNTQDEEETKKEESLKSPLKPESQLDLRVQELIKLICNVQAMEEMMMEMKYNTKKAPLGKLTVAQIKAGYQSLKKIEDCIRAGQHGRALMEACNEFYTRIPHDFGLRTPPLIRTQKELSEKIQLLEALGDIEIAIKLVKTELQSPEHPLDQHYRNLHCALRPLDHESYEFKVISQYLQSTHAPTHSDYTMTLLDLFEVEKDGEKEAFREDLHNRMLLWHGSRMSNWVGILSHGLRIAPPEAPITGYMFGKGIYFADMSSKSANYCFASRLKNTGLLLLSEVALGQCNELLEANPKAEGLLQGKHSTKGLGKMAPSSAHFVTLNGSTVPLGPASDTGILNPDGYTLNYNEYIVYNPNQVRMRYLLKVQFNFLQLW
Nature of the series: biochemical. Conditions: NAD+ consumption assay; > less than 50% inhibition at highest concentration, >> no inhibition. The format is biochemical. On the procedure: (§1) All starting materials, reagents, and solvents were purchased from common commercial suppliers and were used as such without further purification. […] Organic solutions were dried over anhydrous Na2SO4 and concentrated with rotary evaporator at low pressure. All the reactions were routinely checked by thin-layer chromatography (TLC) on silica gel 60F254 (Merck) and visualized by using UV and iodine. Flash chromatography separations were carried out on Merck silica gel 60 (mesh 230-400) or by using automated Buchi Reveleris X2-UV with column FP Ecoflex Si 12 g. Yields were of purified products and were not optimized. ^1HNMR spectra were recorded at 400 MHz (Bruker Avance DRX-400), while ^13CNMR spectra were recorded at 101 MHz (Bruker Avance DRX-400). Chemical shifts are given in ppm (δ) relative to TMS. […] Mating constant (J) are reported in Hz. The purity of the tested compounds was evaluated by HPLC analysis using Jasco LC-4000 instrument equipped with a UV-Visible Diode Array Jasco-MD4015 (Jasco Corporation, Tokyo, Japan), and XTerra MS C18 column, 5 μm×4.6 mm×150 mm (Waters Corporation, Massachusetts, USA). Chromatograms were analyzed by ChromNAV2.0 Chromatography Data System software. […] The peak retention time (ret. time) is given in minutes. […] 1-Isobutoxy-4-methoxy-2-nitrobenzene (113). Isobutyl alcohol (0.6 mL, 6.43 mmol) was added, under nitrogen atmosphere at 0° C., to a suspension of NaH (0.26 g, 6.43 mmol) in dry DMF. After 15 minutes, 1-fluoro-4-methoxy-2-nitrobenzene 112 (1 g, 5.84 mmol) was also added and the reaction mixture was stirred at 80° C. for 4 h. […] (2-Isobutoxy-5-methoxyphenyl)amine (114). Zn (1.57 g, 24 mmol) and NH4C1 (2.45 g, 40 mmol) were added to a solution of 113 (0.46 g, 2 mmol) in acetone/H2O (50 mL, ratio 5:1). The reaction mixture was stirred at 60° C. for 3 h and, then, it was filtered over celite. […] N-(2,5-diethoxyphenyl)thiourea (55). […] N-(2-isobutoxy-5-methoxyphenyl)thiourea (115). […] A solution of Br2 (0.2 mL, 3.3 mmol) in CHCl3 (5 mL) was slowly added to a suspension of 45 (0.6 g, 3.3 mmol) in CHCl3 (13 mL), at 0° C. The reaction mixture was stirred at r.t. for 4 h and, then, a 10% solution of Na2SO3 in water was added to the mixture. […] 4,7-Diethoxy-1,3-benzothiazol-2-amine (66). […] 4-Isobutoxy-7-methoxy-1,3-benzothiazol-2-amine (116). […] Hydrazine hydrate (0.23 mL, 4.77 mmol) and CH3COOH (0.12 mL, 2.1 mmol) were added to a suspension of 56 (0.29 g, 1.59 mmol) in ethylene glycol (8 mL), and the reaction mixture was stirred for 24 h at 125° C. […] 6-Ethyl-2-hydrazino-1,3-benzothiazole (69). […] 6-Ispropyl-2-hydrazino-1,3-benzothiazole (70). […] 2-Hydrazino-4,7-dimethoxy-1,3-benzothiazole (73). […] 2-Hydrazino-5,7-dimethoxy-1,3-benzothiazole (75). […] 2-Hydrazino-4,7-Diethoxy-1,3-benzothiazole (77). […] 2-Hydrazino-5-methyl[1,3]thiazolo[5,4-b]pyridine (100). […] A solution of 67 (0.13 g, 0.65 mmol) in formic acid (5 mL) was refluxed for 10 h. The reaction mixture was then poured into ice/water and the pH was neutralized using a saturated solution of NaHCO3.

Series [3] addresses T2, TNKS2 (Homo sapiens, UniProt Q9H2K2).
T2 sequence (Q9H2K2 1-1166): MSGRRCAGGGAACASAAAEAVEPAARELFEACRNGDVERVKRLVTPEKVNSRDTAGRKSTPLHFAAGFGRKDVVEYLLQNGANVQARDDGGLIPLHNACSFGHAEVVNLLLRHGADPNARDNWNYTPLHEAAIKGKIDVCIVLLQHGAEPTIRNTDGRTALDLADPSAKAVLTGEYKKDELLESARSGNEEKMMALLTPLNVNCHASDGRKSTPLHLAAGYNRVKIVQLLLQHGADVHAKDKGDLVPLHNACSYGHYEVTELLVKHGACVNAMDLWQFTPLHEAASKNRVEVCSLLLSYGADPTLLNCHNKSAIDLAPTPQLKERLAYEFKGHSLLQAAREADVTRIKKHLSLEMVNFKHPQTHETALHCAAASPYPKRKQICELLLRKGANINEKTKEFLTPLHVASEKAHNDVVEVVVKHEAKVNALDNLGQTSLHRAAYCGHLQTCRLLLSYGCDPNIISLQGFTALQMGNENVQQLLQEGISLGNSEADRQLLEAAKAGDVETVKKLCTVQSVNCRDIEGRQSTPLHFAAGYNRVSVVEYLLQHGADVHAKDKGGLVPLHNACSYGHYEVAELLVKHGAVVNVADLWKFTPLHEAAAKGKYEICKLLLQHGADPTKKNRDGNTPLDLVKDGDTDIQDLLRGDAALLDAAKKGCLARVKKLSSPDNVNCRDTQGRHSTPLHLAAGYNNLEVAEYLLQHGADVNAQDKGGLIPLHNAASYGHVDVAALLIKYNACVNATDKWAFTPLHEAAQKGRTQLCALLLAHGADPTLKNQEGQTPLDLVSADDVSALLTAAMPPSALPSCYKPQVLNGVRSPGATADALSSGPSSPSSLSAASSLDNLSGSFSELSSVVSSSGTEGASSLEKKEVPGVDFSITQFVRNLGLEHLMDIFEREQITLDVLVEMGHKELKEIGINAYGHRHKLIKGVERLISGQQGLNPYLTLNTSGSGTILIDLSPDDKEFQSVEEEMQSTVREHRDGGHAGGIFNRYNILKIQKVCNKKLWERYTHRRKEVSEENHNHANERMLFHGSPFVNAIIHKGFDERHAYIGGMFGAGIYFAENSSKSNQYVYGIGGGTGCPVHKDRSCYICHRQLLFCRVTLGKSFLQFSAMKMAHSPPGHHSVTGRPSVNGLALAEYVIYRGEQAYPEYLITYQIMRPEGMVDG
The series is described as follows: biochemical. The note with it: read-out: TNKS2 IC50; NAD+ consumption assay; > less than 50% inhibition at highest concentration, >> no inhibition. On the procedure: as §1

As to `Oc1ccc(O)c2c1sc1nncn12` [Compound 17, [1,2,4]Triazolo[3,4-b][1,3]benzothiazol-5,8-diol], the “toxicity (WST-1 assay)” value in series [1] is listed as “dose dependent toxicity”. The IC50 in series [2] came out at 240 nM; in series [3], 3100 nM.
